Results as given in patent publication US20120214862A1, “MODULATION OF FACTOR 7 EXPRESSION” (ISIS Pharmaceuticals, Inc., priority 2009, published 2012).
In the oligonucleotide strings, read from the 5' end, every base follows the letter of its sugar. An asterisk marks phosphorothioate; unmarked linkages are phosphodiester. Other units and linkages are bracketed, terminal groups are in braces. A string of capitals states the bases alone. e = 2'-O-(2-methoxyethyl) (MOE); [5mC] = 5-methylcytosine; d = 2'-deoxy (DNA)

System: human Factor 7 mRNA
Experiment: Antisense inhibition of human Factor 7 mRNA in HepB3 cells, lipofectin, 50 nM, real-time RT-PCR
Assay type: cell-based
Settings: Example 1; HepB3 cells, lipofectin, 50 nM, ~24 h, relative to untreated control cells
In short: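 Cells plated at 4,000 per well were transfected and harvested after approximately 24 hours of treatment. Transcript levels, measured with primer probe set RTS 2927, were normalised to total RNA by RIBOGREEN®. Values are percent inhibition relative to untreated control cells.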

Substance | % Inhibition (human Factor 7 mRNA) [%]
407915 (antisense eG*eT*eT*eG*e[5mC]*dG*d[5mC]*dA*dG*d[5mC]*d[5mC]*d[5mC]*dT*dG*dG*e[5mC]*e[5mC]*e[5mC]*e[5mC]*eA) [compound 407915] | 83
407657 (antisense eG*eG*eG*eA*e[5mC]*dT*d[5mC]*dA*dG*d[5mC]*dA*dA*dG*dA*dG*eT*eG*e[5mC]*eA*eG) [compound 407657] | 26
407631 (antisense eG*eG*eG*e[5mC]*eA*d[5mC]*d[5mC]*dA*d[5mC]*dA*dT*dG*dG*dT*d[5mC]*eA*eG*eT*eG*eA) [compound 407631] | 66
407605 (antisense eT*eT*eG*eA*eG*dG*d[5mC]*dA*d[5mC]*dA*d[5mC]*dT*dG*dG*dT*e[5mC]*e[5mC]*e[5mC]*e[5mC]*eA) [compound 407605] | 58
407646 (antisense eG*eG*eT*eG*eA*dT*dG*d[5mC]*dT*dT*d[5mC]*dT*dG*dA*dA*eT*eT*eG*eT*e[5mC]) [compound 407646] | 81
407908 (antisense e[5mC]*e[5mC]*e[5mC]*e[5mC]*eA*dG*d[5mC]*d[5mC]*dG*d[5mC]*dT*dG*dA*d[5mC]*d[5mC]*eA*eA*eT*eG*eA) [compound 407908] | 47
407905 (antisense e[5mC]*e[5mC]*eA*eG*eT*dT*d[5mC]*dT*dT*dG*dA*dT*dT*dT*dT*eG*eT*e[5mC]*eG*eA) [compound 407905] | 40
407636 (antisense eG*e[5mC]*eA*eG*e[5mC]*d[5mC]*d[5mC]*dT*dG*dG*d[5mC]*d[5mC]*d[5mC]*d[5mC]*dA*eG*e[5mC]*eT*eG*eA) [compound 407636] | 75
407629 (antisense eT*e[5mC]*eA*eG*eT*dG*dA*dG*dG*dA*d[5mC]*d[5mC]*dA*d[5mC]*dG*eG*eG*e[5mC]*eT*eG) [compound 407629] | 34
407626 (antisense eT*e[5mC]*eT*eT*eG*dA*dT*dT*dT*dT*dG*dT*d[5mC]*dG*dA*eA*eA*e[5mC]*eA*eG) [compound 407626] | 82
407623 (antisense eT*e[5mC]*e[5mC]*eA*eT*dT*d[5mC]*dA*d[5mC]*d[5mC]*dA*dA*d[5mC]*dA*dA*e[5mC]*eA*eG*eG*eA) [compound 407623] | 69
407650 (antisense e[5mC]*e[5mC]*eA*eT*eG*dT*dG*dA*dG*dG*dG*dT*dT*d[5mC]*dA*eT*eT*eT*e[5mC]*eA) [compound 407650] | 39
407940 (antisense eT*eG*eT*eG*eA*dA*dG*d[5mC]*dT*dG*dG*dG*dA*dA*dG*e[5mC]*eA*eG*eG*eT) [compound 407940] | 62
407906 (antisense eA*e[5mC]*e[5mC]*eA*e[5mC]*dG*dG*dG*d[5mC]*dT*dG*dG*dT*dG*d[5mC]*eA*eG*eG*e[5mC]*eG) [compound 407906] | 4

Same assay, conditions: Example 4; HepB3 cells, lipofectin, 50 nM, ~24 h, relative to untreated control

Substance | % Inhibition (human Factor 7 mRNA) [%]
422272 (antisense eA*e[5mC]*dT*dG*dA*dG*d[5mC]*dG*d[5mC]*dG*dG*dA*dA*dG*dA*eA*eG*eG*eG*eA) [compound 422272] | 12
422117 (antisense eG*eG*eA*eA*eG*dA*dA*dG*dG*dG*dA*d[5mC]*dG*dG*dA*eA*eG*eG*eT*eG) [compound 422117] | 1

Same assay, conditions: Example 6 microwalk, nucleobases 15098 to 15122 of SEQ ID NO: 1; HepB3, lipofectin, 50 nM, ~24 h

Substance | % Inhibition (human Factor 7 mRNA) [%]
422209 (antisense eA*eG*e[5mC]*dA*d[5mC]*dA*d[5mC]*dA*dT*dG*dG*dA*dG*dT*d[5mC]*dA*dG*e[5mC]*eA*eT) [compound 422209] | 47
422210 (antisense e[5mC]*eA*eG*d[5mC]*dA*d[5mC]*dA*d[5mC]*dA*dT*dG*dG*dA*dG*dT*d[5mC]*dA*eG*e[5mC]*eA) [compound 422210] | 25

Same assay, conditions: HepB3 cells, lipofectin, 50 nM antisense oligonucleotide, approximately 24 hours, primer probe set RTS 2927, relative to untreated control

Substance | % Inhibition of human Factor 7 mRNA levels [%]
416523 (antisense eT*e[5mC]*eT*e[5mC]*eG*dA*dG*dG*dG*d[5mC]*dT*dG*dA*dG*dA*eA*eT*eT*eG*e[5mC]) [compound 416523] | 18
416543 (antisense eT*e[5mC]*e[5mC]*eT*eG*d[5mC]*dG*dA*dG*dT*dG*dG*dG*dA*dG*eT*eT*eG*eG*eA) [compound 416543] | 0
416546 (antisense e[5mC]*e[5mC]*eA*eG*eG*d[5mC]*dT*dG*dG*dT*dT*dT*dG*dG*dA*eG*eA*eA*eA*e[5mC]) [compound 416546] | 21
416486 (antisense eA*eT*eT*eG*eA*d[5mC]*dA*dA*dG*dG*dG*d[5mC]*dT*dG*dT*eG*eG*e[5mC]*eA*eG) [compound 416486] | 12
416442 (antisense eA*eG*e[5mC]*eA*eG*dA*dT*dA*dT*dA*dG*dG*dA*d[5mC]*dT*eG*eG*eA*eG*e[5mC]) [compound 416442] | 57
416436 (antisense eA*e[5mC]*eT*eG*eG*dT*d[5mC]*d[5mC]*d[5mC]*d[5mC]*dA*dT*d[5mC]*dA*d[5mC]*eT*eG*eT*eA*eA) [compound 416436] | 27
416481 (antisense eA*eG*eA*eT*eG*dA*dT*dA*dA*dT*dG*dG*dA*dT*dA*eA*eG*eA*eA*e[5mC]) [compound 416481] | 15
416532 (antisense eG*eG*eA*e[5mC]*e[5mC]*d[5mC]*dA*dG*dA*dT*dG*dA*d[5mC]*d[5mC]*dA*eG*e[5mC]*eA*eG*eG) [compound 416532] | 12
416528 (antisense eT*eG*eA*eT*eA*dA*dA*dA*d[5mC]*d[5mC]*dT*d[5mC]*dT*dG*dG*eA*e[5mC]*eA*e[5mC]*e[5mC]) [compound 416528] | 10
416547 (antisense eA*eT*eG*eA*eA*dA*dT*dT*d[5mC]*dT*dA*d[5mC]*d[5mC]*dT*dA*eA*eA*eG*eA*eT) [compound 416547] | 0
416534 (antisense eA*eT*eG*e[5mC]*eA*d[5mC]*dA*d[5mC]*d[5mC]*dA*dG*dG*dG*d[5mC]*dT*eG*e[5mC]*eT*eG*eG) [compound 416534] | 32
416439 (antisense eG*eT*e[5mC]*e[5mC]*eT*dT*dG*d[5mC]*dA*dG*dG*dA*dG*d[5mC]*d[5mC]*e[5mC]*e[5mC]*e[5mC]*eA*eT) [compound 416439] | 56
416461 (antisense eG*eA*eA*eG*e[5mC]*dG*d[5mC]*dA*d[5mC]*dG*dA*dA*dG*dG*d[5mC]*e[5mC]*eA*eG*e[5mC]*eG) [compound 416461] | 43

Same assay, conditions: HepB3 cells; gapmers (5-10-5, 3-14-3, 2-13-5 MOE) targeted to nucleobases 4868 to 4899 of SEQ ID NO: 1

Substance | % Inhibition of human Factor 7 mRNA levels [%]
422302 (antisense eA*eG*dG*dA*dG*d[5mC]*d[5mC]*d[5mC]*dG*dA*dG*dT*dT*d[5mC]*dT*eG*e[5mC]*eA*eG*eG) [compound 422302] | 67

Same assay, conditions: HepB3 cells; gapmers targeted to nucleobases 11830 to 11869 of SEQ ID NO: 1 (Table 9)

Substance | % Inhibition of human Factor 7 mRNA levels [%]
422158 (antisense eA*eT*eG*dG*dT*d[5mC]*dA*dG*dG*dG*d[5mC]*dT*dG*dG*dT*dT*dT*eT*eG*eG) [compound 422158] | 49
422157 (antisense eT*eG*eG*dT*d[5mC]*dA*dG*dG*dG*d[5mC]*dT*dG*dG*dT*dT*dT*dT*eG*eG*eA) [compound 422157] | 49
422097 (antisense eG*eA*eG*eA*e[5mC]*dA*dA*dT*dG*dG*dT*d[5mC]*dA*dG*dG*eG*e[5mC]*eT*eG*eG) [compound 422097] | 59
422092 (antisense eA*eT*eG*eG*eT*d[5mC]*dA*dG*dG*dG*d[5mC]*dT*dG*dG*dT*eT*eT*eT*eG*eG) [compound 422092] | 36
422251 (antisense eG*e[5mC]*dT*dG*dG*d[5mC]*dT*dG*dA*dG*dG*dA*dG*dA*d[5mC]*eA*eA*eT*eG*eG) [compound 422251] | 36
422246 (antisense e[5mC]*eT*dG*dA*dG*dG*dA*dG*dA*d[5mC]*dA*dA*dT*dG*dG*eT*e[5mC]*eA*eG*eG) [compound 422246] | 46
422171 (antisense eG*eG*e[5mC]*dT*dG*dA*dG*dG*dA*dG*dA*d[5mC]*dA*dA*dT*dG*dG*eT*e[5mC]*eA) [compound 422171] | 61

Same assay, conditions: HepB3 cells; gapmers targeted to nucleobases 13760 to 13789 of SEQ ID NO: 1 (Table 10)

Substance | % Inhibition of human Factor 7 mRNA levels [%]
422184 (antisense eT*eG*e[5mC]*dG*d[5mC]*d[5mC]*dA*d[5mC]*d[5mC]*d[5mC]*dG*d[5mC]*d[5mC]*dG*dG*d[5mC]*dT*e[5mC]*eT*eG) [compound 422184] | 55
422115 (antisense eG*e[5mC]*eG*e[5mC]*e[5mC]*dA*d[5mC]*d[5mC]*d[5mC]*dG*d[5mC]*d[5mC]*dG*dG*d[5mC]*eT*e[5mC]*eT*eG*e[5mC]) [compound 422115] | 66
